Consider 24 compounds from patent publication US9611275B2 (priority 2012, dated 2017).

Molecules are shown by their SMILES.

The first data set deals with human O-GlcNAcase (Homo sapiens (Human), UniProt O60502). Briefly: biochemical. It is filed as biochemical. Conditions: purified human O-GlcNAcase 0.7 nM, pH 7.0, room temperature, Cheng-Prusoff; read-out: OGA KI.
Sequence of human O-GlcNAcase (O60502 whole entry): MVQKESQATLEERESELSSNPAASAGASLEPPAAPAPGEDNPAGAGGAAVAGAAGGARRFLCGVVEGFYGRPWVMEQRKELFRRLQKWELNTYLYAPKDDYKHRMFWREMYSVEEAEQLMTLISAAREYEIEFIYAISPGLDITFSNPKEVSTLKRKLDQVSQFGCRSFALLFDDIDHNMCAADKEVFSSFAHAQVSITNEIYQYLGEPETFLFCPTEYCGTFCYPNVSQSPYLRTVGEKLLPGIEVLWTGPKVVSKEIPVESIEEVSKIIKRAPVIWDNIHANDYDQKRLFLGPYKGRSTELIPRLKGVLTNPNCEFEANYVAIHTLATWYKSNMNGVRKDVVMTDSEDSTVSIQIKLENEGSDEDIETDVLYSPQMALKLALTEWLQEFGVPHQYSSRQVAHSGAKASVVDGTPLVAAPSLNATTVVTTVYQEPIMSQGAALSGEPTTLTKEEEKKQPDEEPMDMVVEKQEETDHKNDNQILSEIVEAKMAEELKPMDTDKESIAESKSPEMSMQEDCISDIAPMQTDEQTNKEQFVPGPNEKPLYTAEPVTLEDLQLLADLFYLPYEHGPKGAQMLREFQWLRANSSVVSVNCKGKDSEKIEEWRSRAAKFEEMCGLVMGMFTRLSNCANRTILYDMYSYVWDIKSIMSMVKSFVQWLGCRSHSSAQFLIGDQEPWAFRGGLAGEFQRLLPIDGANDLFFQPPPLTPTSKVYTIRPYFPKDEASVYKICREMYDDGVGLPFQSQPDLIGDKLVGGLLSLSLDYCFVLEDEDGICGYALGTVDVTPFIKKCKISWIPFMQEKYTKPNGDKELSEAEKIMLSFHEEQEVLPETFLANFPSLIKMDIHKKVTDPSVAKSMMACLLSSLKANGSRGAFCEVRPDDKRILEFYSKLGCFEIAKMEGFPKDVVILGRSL
As usually defined, the Ki is the dissociation constant of the complex between target and ligand, obtained from inhibition or displacement. On to `CN(C)C1=N[C@@H]2[C@@H](O)[C@H](O)[C@@H]([C@@H](N(C)C)C(F)(F)F)O[C@@H]2S1` [Example 17, (3aR,5R,6S,7R,7aR)-2-(dimethylamino)-5-((R)-1-(dimethylamino)-2,2,2-trifluoroethyl)-5,6,7,7a-tetrahydro-3aH-pyrano[3,2-d]thiazole-6,7-diol], for which the inhibition constant Ki is 41.9 nM.
For `CN(C)C1=N[C@@H]2[C@@H](O)[C@H](O)[C@@H]([C@@](CCc3ccccc3)(OCc3ccccc3)C(F)(F)F)O[C@@H]2S1` [Example 76, (3aR,5S,6S,7R,7aR)-5-((R)-2-(benzyloxy)-1,1,1-trifluoro-4-phenylbutan-2-yl)-2-(dimethylamino)-5,6,7,7a-tetrahydro-3aH-pyrano[3,2-d]thiazole-6,7-diol], the Ki was 726 nM.

The same data set, now with this note: read-out: OGA KI.
Consider `CN(C)C1=N[C@@H]2[C@@H](O)[C@H](O)[C@@H]([C@@H](OCc3ccc(-c4ccccc4)cc3)C(F)(F)F)O[C@@H]2S1` [Example 44, (3aR,5S,6S,7R,7aR)-5-((R)-1-(biphenyl-4-ylmethoxy)-2,2,2-trifluoroethyl)-2-(dimethylamino)-5,6,7,7a-tetrahydro-3aH-pyrano[3,2-d]thiazole-6,7-diol], for which the Ki worked out at 3.05 nM.

The same data set, now with this note: units given within the value.
With `CNC1=N[C@@H]2[C@H]3OC(C)(C)O[C@@H]3[C@@H](C(OCc3ccc(F)cc3)C(F)(F)F)O[C@@H]2S1` (stereo in doubt) [Example 117, (1R,2R,6R,8S,9S)—N,11,11-trimethyl-8-[(1S)-2,2,2-trifluoro-1-[(4-fluorophenyl)methoxy]ethyl]-7,10,12-trioxa-5-thia-3-azatricyclo[7.3.0.0[2,6]]dodec-3-en-4-amine], the “KI values for inhibition of O-GlcNAcase” value is listed as “does not possess inhibitory activity in the aforementioned range”.

Test system in the next data set: not listed separately
As to the kind of experiment: Assay for determination of apparent permeability (Papp), bi-directional transport. Conditions: pig, LLC-PK1.
As usually defined, the Papp is the rate of passage across a membrane or cell layer, normalised by area and donor concentration. In the case of `CN(C)C1=N[C@@H]2[C@@H](O)[C@H](O)[C@@H]([C@@H](N(C)C)C(F)(F)F)O[C@@H]2S1` [Example 17, (3aR,5R,6S,7R,7aR)-2-(dimethylamino)-5-((R)-1-(dimethylamino)-2,2,2-trifluoroethyl)-5,6,7,7a-tetrahydro-3aH-pyrano[3,2-d]thiazole-6,7-diol], the Papp at 3 h, 1 μM was found to be 31.2 ×10⁻⁶ cm/s.
For `COc1c(C)cc(CO[C@H]([C@H]2O[C@@H]3SC(N(C)C)=N[C@@H]3[C@@H](O)[C@@H]2O)C(F)(F)F)cc1C` [Example 60, (3aR,5S,6S,7R,7aR)-2-(dimethylamino)-5-((R)-2,2,2-trifluoro-1-(4-methoxy-3,5-dimethylbenzyloxy)ethyl)-5,6,7,7a-tetrahydro-3aH-pyrano[3,2-d]thiazole-6,7-diol], the apparent permeability (Papp) at 3 h, 1 μM worked out at 29 ×10⁻⁶ cm/s.
Take `CN(C)C1=N[C@@H]2[C@@H](O)[C@H](O)[C@@H]([C@H](OCc3cccc(F)c3)C(F)(F)F)O[C@@H]2S1` [Example 63, (3aR,5S,6S,7R,7aR)-2-(dimethylamino)-5-((S)-2,2,2-trifluoro-1-(3-fluorobenzyloxy)ethyl)-5,6,7,7a-tetrahydro-3aH-pyrano[3,2-d]thiazole-6,7-diol]: the Papp at 3 h, 1 μM is 31.2 ×10⁻⁶ cm/s.
Still for that read-out and setting: the figure for `CN(C)C1=N[C@@H]2[C@@H](O)[C@H](O)[C@@H]([C@@H](OCc3cccc(C(F)(F)F)c3)C(F)(F)F)O[C@@H]2S1` [Example 67, (3aR,5S,6S,7R,7aR)-2-(dimethylamino)-5-((R)-2,2,2-trifluoro-1-(3-(trifluoromethyl)benzyloxy)ethyl)-5,6,7,7a-tetrahydro-3aH-pyrano[3,2-d]thiazole-6,7-diol] is 29.5 ×10⁻⁶ cm/s; for `CN(C)C1=N[C@@H]2[C@@H](O)[C@H](O)[C@@H]([C@@H](OCc3ccccc3C(F)(F)F)C(F)(F)F)O[C@@H]2S1` [Example 68, (3aR,5S,6S,7R,7aR)-2-(dimethylamino)-5-((R)-2,2,2-trifluoro-1-(2-(trifluoromethyl)benzyloxy)ethyl)-5,6,7,7a-tetrahydro-3aH-pyrano[3,2-d]thiazole-6,7-diol] it is 34.1 ×10⁻⁶ cm/s.
The same measure, in the same setting: the figure for `CN(C)C1=N[C@@H]2[C@@H](O)[C@H](O)[C@@H]([C@@H](OCc3ccc(CF)cc3)C(F)(F)F)O[C@@H]2S1` [Example 69, (3aR,5S,6S,7R,7aR)-2-(dimethylamino)-5-((R)-2,2,2-trifluoro-1-(4-(fluoromethyl)benzyloxy)ethyl)-5,6,7,7a-tetrahydro-3aH-pyrano[3,2-d]thiazole-6,7-diol] is 31.1 ×10⁻⁶ cm/s; for `CCN(C)C1=N[C@@H]2[C@@H](O)[C@H](O)[C@@H]([C@H](OC)C(F)(F)F)O[C@@H]2S1` [Example 72, (3aR,5S,6S,7R,7aR)-2-(ethyl(methyl)amino)-5-((S)-2,2,2-trifluoro-1-methoxyethyl)-5,6,7,7a-tetrahydro-3aH-pyrano[3,2-d]thiazole-6,7-diol] it is 25.4 ×10⁻⁶ cm/s.
On to `CCN(C)C1=N[C@@H]2[C@@H](O)[C@H](O)[C@@H]([C@@H](OC)C(F)(F)F)O[C@@H]2S1` [Example 73, (3aR,5S,6S,7R,7aR)-2-(ethyl(methyl)amino)-5-((R)-2,2,2-trifluoro-1-methoxyethyl)-5,6,7,7a-tetrahydro-3aH-pyrano[3,2-d]thiazole-6,7-diol], for which the Papp at 3 h, 1 μM is 19.9 ×10⁻⁶ cm/s.
Still for that read-out and setting: the figure for `CNC1=N[C@@H]2[C@@H](O)[C@H](O)[C@@H]([C@@H](OCCC3CCCCC3)C(F)(F)F)O[C@@H]2S1` [Example 80, (3aR,5S,6S,7R,7aR)-5-((R)-1-(2-cyclohexylethoxy)-2,2,2-trifluoroethyl)-2-(methylamino)-5,6,7,7a-tetrahydro-3aH-pyrano[3,2-d]thiazole-6,7-diol] is 28.5 ×10⁻⁶ cm/s; for `CNC1=N[C@@H]2[C@@H](O)[C@H](O)[C@@H]([C@@H](OCCCc3ccc(F)cc3)C(F)(F)F)O[C@@H]2S1` [Example 83, (3aR,5S,6S,7R,7aR)-2-(methylamino)-5-((R)-2,2,2-trifluoro-1-(3-(4-fluorophenyl)propoxy)ethyl)-5,6,7,7a-tetrahydro-3aH-pyrano[3,2-d]thiazole-6,7-diol] it is 29.7 ×10⁻⁶ cm/s.
Regarding `CNC1=N[C@@H]2[C@@H](O)[C@H](O)[C@@H]([C@@H](OCc3ccccc3)C(F)(F)F)O[C@@H]2S1` [Example 84, (3aR,5S,6S,7R,7aR)-5-((R)-1-(benzyloxy)-2,2,2-trifluoroethyl)-2-(methylamino)-5,6,7,7a-tetrahydro-3aH-pyrano[3,2-d]thiazole-6,7-diol], the apparent permeability coefficient (Papp) at 3 h, 1 μM was found to be 27 ×10⁻⁶ cm/s.
The same measure, in the same setting: the figure for `CCc1ccc(CO[C@H]([C@H]2O[C@@H]3SC(NC)=N[C@@H]3[C@@H](O)[C@@H]2O)C(F)(F)F)cc1` [Example 86, (3aR,5S,6S,7R,7aR)-5-((R)-1-(4-ethylbenzyloxy)-2,2,2-trifluoroethyl)-2-(methylamino)-5,6,7,7a-tetrahydro-3aH-pyrano[3,2-d]thiazole-6,7-diol] is 29.9 ×10⁻⁶ cm/s; for `CNC1=N[C@@H]2[C@@H](O)[C@H](O)[C@@H]([C@@H](OCc3ccccc3C(F)(F)F)C(F)(F)F)O[C@@H]2S1` [Example 93, (3aR,5S,6S,7R,7aR)-2-(methylamino)-5-((R)-2,2,2-trifluoro-1-(2-(trifluoromethyl)benzyloxy)ethyl)-5,6,7,7a-tetrahydro-3aH-pyrano[3,2-d]thiazole-6,7-diol] it is 29.2 ×10⁻⁶ cm/s.
Regarding `CNC1=N[C@@H]2[C@@H](O)[C@H](O)[C@@H]([C@@H](OCc3ccc(C(F)(F)F)cc3)C(F)(F)F)O[C@@H]2S1` [Example 94, (3aR,5S,6S,7R,7aR)-2-(mcthylamino)-5-((R)-2,2,2-trifluoro-1-(4-(trifluoromethyl)benzyloxy)ethyl)-5,6,7,7a-tetrahydro-3aH-pyrano[3,2-d]thiazole-6,7-diol], the Papp at 3 h, 1 μM was 24.6 ×10⁻⁶ cm/s.
For `CNC1=N[C@@H]2[C@@H](O)[C@H](O)[C@@H]([C@@H](OCc3ccc(OC)cc3)C(F)(F)F)O[C@@H]2S1` [Example 97, 2-(methylamino)-5-(2,2,2-trifluoro-1-(4-methoxybenzyloxy)ethyl)-5,6,7,7a-tetrahydro-3aH-pyrano[3,2-d]thiazole-6,7-diol], the Papp at 3 h, 1 μM came to 24.7 ×10⁻⁶ cm/s.
For the compound `CNC1=N[C@@H]2[C@@H](O)[C@H](O)[C@@H]([C@@H](OCc3ccc(OC)c(C(F)(F)F)c3)C(F)(F)F)O[C@@H]2S1` [Example 98, (3aR,5S,6S,7R,7aR)-2-(methylamino)-5-((R)-2,2,2-trifluoro-1-(4-methoxy-3-(trifluoromethyl)benzyloxy)ethyl)-5,6,7,7a-tetrahydro-3aH-pyrano[3,2-d]thiazole-6,7-diol], the Papp at 3 h, 1 μM is 29.1 ×10⁻⁶ cm/s.
On to `CNC1=N[C@@H]2[C@@H](O)[C@H](O)[C@@H]([C@@H](OCc3ccc(Oc4ccccc4)cc3)C(F)(F)F)O[C@@H]2S1` [Example 99, (3aR,5S,6S,7R,7aR)-2-(methylamino)-5-((R)-2,2,2-trifluoro-1-(4-phenoxybenzyloxy)ethyl)-5,6,7,7a-tetrahydro-3aH-pyrano[3,2-d]thiazole-6,7-diol], for which the Papp at 3 h, 1 μM was 21.7 ×10⁻⁶ cm/s.
Same read-out and setting: the figure for `CCc1cc(CO[C@H]([C@H]2O[C@@H]3SC(NC)=N[C@@H]3[C@@H](O)[C@@H]2O)C(F)(F)F)ccc1OC` [Example 100, (3aR,5S,6S,7R,7aR)-5-((R)-1-(3-ethyl-4-methoxybenzyloxy)-2,2,2-trifluoroethyl)-2-(methylamino)-5,6,7,7a-tetrahydro-3aH-pyrano[3,2-d]thiazole-6,7-diol] is 28.1 ×10⁻⁶ cm/s.
As to `CNC1=N[C@@H]2[C@@H](O)[C@H](O)[C@@H]([C@@H](OCc3cc(C)c(OC)c(C)c3)C(F)(F)F)O[C@@H]2S1` [Example 101, (3aR,5S,6S,7R,7aR)-2-(methylamino)-5-((R)-2,2,2-trifluoro-1-(4-methoxy-3,5-dimethylbenzyloxy)ethyl)-5,6,7,7a-tetrahydro-3aH-pyrano[3,2-d]thiazole-6,7-diol], the Papp at 3 h, 1 μM was found to be 28.9 ×10⁻⁶ cm/s.
Still for that read-out and setting: the figure for `CN(C)C1=N[C@@H]2[C@@H](O)[C@H](O)[C@@H]([C@@H](Oc3ccccc3)C(F)(F)F)O[C@@H]2S1` [Example 107, (3aR,5S,6S,7R,7aR)-2-(dimethylamino)-5-((R)-2,2,2-trifluoro-1-phenoxyethyl)-5,6,7,7a-tetrahydro-3aH-pyrano[3,2-d]thiazole-6,7-diol] is 31.3 ×10⁻⁶ cm/s; for `COc1ccc(CO[C@@H](C)[C@H]2O[C@@H]3SC(N(C)C)=N[C@@H]3[C@@H](O)[C@@H]2O)cc1` [Example 109, (3aR,5S,6S,7R,7aR)-2-(dimethylamino)-5-((S)-1-(4-methoxybenzyloxy)ethyl)-5,6,7,7a-tetrahydro-3aH-pyrano[3,2-d]thiazole-6,7-diol] it is 26.3 ×10⁻⁶ cm/s.
